Test results as given in patent US20180192651A1, “THERMAL VOLATILIZATION OF ORCO AGONISTS” (VANDERBILT UNIVERSITY, priority 2015, published 2018).

Assays:
[1] = test system: Capitate peg neurons B/C (cpB/C), neurons known to contain Orco; test: Single sensillum recordings (SSRs), maxillary palp capitate peg neurons B/C; assay type: in vivo, Anopheles gambiae; details: for Puffing cpB/C: Puffing: airstream only for compound delivery; for Huffing cpB/C: Huffing: airstream in combination with heat (propane or butane torch)
Procedure: (§1) Single sensillum recordings (SSRs) were performed on single capitate peg (cp) sensillum along the maxillary palps that house three types of olfactory receptor neurons (ORNs). 5- to 7-d-old non-blood fed female Anopheles gambiae that were maintained on 10% sucrose at 12h/12h light/dark cycle were used. Mosquitoes were immobilized by chilling at -20° C. for 1 min before removing wings and legs and then fixing on a glass coverslip covered with double-sided sticky tape. Maxillary palps were extended and held onto the double-sided sticky tape with a piece of hair brush thread. Chloridized silver wires in drawn-out glass capillaries were filled with 0.1% KCl and used as reference and recording electrodes. The reference electrode was placed in the eye, and recording electrode was brought into contact with the sensillum under the microscope (Olympus BX51WI; 800× magnification) by use of a Piezo-Patch micromaniputor (PPM5000; World Precision Instruments). The signals were digitized by the IDAC4 interface box (Syntech, Hilversum, The Netherlands) and offline analysis carried out by using analyzed with AutoSpike v. 3.2 software (Syntech). The extracellular activity of individual capitate peg sensillum ORNs are physiologically distinct and can be characterized into cpA (large), cpB (medium), and cpC (small) based on their spike amplitudes and shape. Responses were quantified by subtracting the number of spikes 1 s before odor stimulation from the number of spikes 1 s after the onset of odor stimulation from individual preparations. […] A 25 μL (VUAA1) or 25 μL aliquot (VUAnt) was then applied to a filter paper strip and placed inside a glass Pasteur pipette. The compound was then delivered by heating the pipette by a propane or butane torch right at the place of treatment for approximately 1 seconds. The compound was then delivered by puffing the odor cartridges with a controlled 0.5-s stimulus of air (5 mL/s) into a humidified airstream (10 mL/s), which was passed over the sensillum. Alternatively, 2-5 mgs of solid compound were measured into a glass Pasteur pipette. The glass pipette was then exposed to heat from a micro propane or butane torch for approximately 5 to 10 seconds. The compound was then delivered by puffing the odor cartridges with a controlled 0.5-s stimulus of air (5 mL/s) into a humidified airstream (10 mL/s), which was passed over the sensillum. Each compound was subjected to in vivo single […] recordings (SSRs) from the maxillary palp of An. gambiae. Puffing refers to use of an airstream only for compound delivery. Huffing refers to the use of an airstream in combination with heat. Specifically, huffing involved direct combustion of the solid compound via propane or butane torch. […] Capitate peg neurons B/C (cpB/C) are neurons known to contain Orco. Carbon dioxide activates only cpA, while 1-octen-3-ol is a known activator of cpB/C.

[2] = test system: Capitate peg neuron A (cpA), a carbon dioxide sensor that does not contain Orco; test: Single sensillum recordings (SSRs), maxillary palp capitate peg neuron A; assay type: in vivo, Anopheles gambiae; details: cpA is the negative control; for Puffing cpA: Puffing: airstream only for compound delivery; for Huffing cpA: Huffing: airstream in combination with heat (propane or butane torch)
Procedure: as §1

[3] = test system: odorant receptor neuronal cells expressing Orco; test: Currents in odorant receptor neuronal cells expressing Orco; assay type: cell-based, Drosophila melanogaster; details: thermally volatized compound; FIG. 3

| Structure (SMILES) | Puffing cpB/C [1] | Puffing cpA [2] | Huffing cpB/C [1] | Huffing cpA [2] | currents induced in odorant receptor neuronal cells expressing Orco [3] |
| --- | --- | --- | --- | --- | --- |
| O=C=O [CO2, carbon dioxide, reference compound] | − (− = <10 spikes/s) | +++ (+++ = >40 spikes/s) | – | – | – |
| CCn1c(SCC(=O)Nc2ccc(C)cc2)nnc1-c1cccnc1 [Compound 1] | − (− = <10 spikes/s) | − (− = <10 spikes/s) | +++ (+++ = >40 spikes/s) | − (− = <10 spikes/s) | – |
| CCn1c(SCC(=O)N2c3ccccc3Sc3ccccc32)nnc1-c1ccco1 [Compound 4, 2-[[4-ethyl-5-(2-furanyul)-4H-1,2,4-triazol-3-yl]thio]-1-(10OH-phenothiazin-10-yl)-ethanone] | − (− = <10 spikes/s) | − (− = <10 spikes/s) | + (+ = 10-20 spikes/s) | + (+ = 10-20 spikes/s) | – |
| C=CC(O)CCCCC (centres unmarked) [Compound 1-octen-3-ol, 1-octen-3-ol, reference compound] | +++ (+++ = >40 spikes/s) | − (− = <10 spikes/s) | – | – | – |
| CCc1ccc(NC(=O)CSc2nnc(-c3cccnc3)n2CC)cc1 [Compound 2] | − (− = <10 spikes/s) | − (− = <10 spikes/s) | + (+ = 10-20 spikes/s) | − (− = <10 spikes/s) | currents induced |
